17 molecules from US20260347364A1, “PYRAZOLO[4,3-F]QUINAZOLINE DERIVATIVES AS MODULATORS OF G12D MUTANT KRAS USEFUL FOR THE TREATMENT OF CANCER” (JAZZ PHARMACEUTICALS IRELAND LTD., priority 2023, published 2026) can be followed below.

Test [1] concerns the target T1, KRAS WT (Homo sapiens, UniProt P01116).
T1 construct: aa1-188 KRAS WT
In words: HTRF nucleotide exchange assay, KRAS WT. The conditions noted are these: HTRF nucleotide exchange assay (NEA), class symbols. It counts as biochemical. On the procedure: (§1) HTRF Nucleotide Exchange Assay Method
(§2) The capacity of compounds to bind KRAS G12D, other KRAS mutants and wildtype RAS isoforms was quantified using a HTRF nucleotide exchange assay. Recombinant human RAS protein (2 nM; aa1-188 KRAS WT, HRAS WT, NRAS WT, or KRAS containing the G12D, G13D or Q61H amino acid substitutions, or 4 nM KRAS; aa1-188 containing the G12V, G12C, G12A or G12S amino acid substitution, an N-terminal 6× His-tag and leader sequence), and 2 nM Europium-labeled anti-6× His antibody were mixed in assay buffer (10 mM HEPES pH 7.3, 150 mM NaCl, 5 mM MgCl2, 0.05% BSA, 0.0025% NP-40 and 100 mM KF) with various concentrations of compound in a 384-well plate and a volume of 5 μL. After a 60-minute incubation at room temperature, 5 μl of 200 nM EDA-GTP-DY647P1 (diluted in assay buffer) was added to the plate. Following 30-minute incubation at room temperature, time-resolved fluorescence was measured on a PerkinElmer Envision plate reader. DMSO (0.3%) and unlabeled GDP (1 μM) or equivalent tool compound were used to generate the Max and Min assay signals, respectively. Data was analysed using a four-parameter logistic model to calculate IC50 values, with at least two independent replicates were performed for each compound. The results are presented as IC50s in Table 29 where “A” corresponds to an IC50 ≤10 nM, “B” to an IC50 >10 nM up to 100 nM, “C” is >100 nM up to 10 μM, “D” represents <49% inhibition at 10 μM and ND=not determined: […]

Test [2] has as its target T2, KRAS G12D (Homo sapiens, UniProt P01116, G12D).
T2 construct: aa1-188 KRAS WT, HRAS WT, NRAS WT, or KRAS containing the G12D
As to the kind of experiment: HTRF nucleotide exchange assay, KRAS G12D. It counts as biochemical. Particulars: HTRF nucleotide exchange assay (NEA), class symbols. The method, then:
as §1, §2

T2 sequence (P01116 1-188 isoform P01116-2 G12D): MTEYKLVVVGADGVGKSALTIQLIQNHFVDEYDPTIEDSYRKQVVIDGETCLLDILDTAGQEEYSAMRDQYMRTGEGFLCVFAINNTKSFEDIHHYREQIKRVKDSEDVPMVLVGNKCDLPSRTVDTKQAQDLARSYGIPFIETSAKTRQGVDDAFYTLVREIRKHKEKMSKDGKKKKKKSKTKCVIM
T1 sequence (P01116 1-188 isoform P01116-2): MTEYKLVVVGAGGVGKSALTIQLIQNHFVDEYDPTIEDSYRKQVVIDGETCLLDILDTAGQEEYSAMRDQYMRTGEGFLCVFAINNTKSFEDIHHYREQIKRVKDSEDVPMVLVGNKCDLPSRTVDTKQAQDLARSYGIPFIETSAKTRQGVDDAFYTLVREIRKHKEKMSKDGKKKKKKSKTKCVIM

For `CCc1c(F)ccc2cc(O)cc(-c3c(C)c4nc(OC[C@@]56CCCN5C[C@H](F)C6)nc(N5CCCn6nc(C(=O)N7CCCC7)cc6C5)c4c4cn(C)nc34)c12` [Example 182, [5-[4-(8-ethyl-7-fluoro-3-hydroxy-1-naphthyl)-7-[[(2R,8S)-2-fluoro-1,2,3,5,6,7-hexahydropyrrolizin-8-yl]methoxy]-2,5-dimethyl-pyrazolo[4,3-f]quinazolin-9-yl]-4,6,7,8-tetrahydropyrazolo[1,5-a][1,4]diazepin-2-yl]-pyrrolidin-1-yl-methanone], the IC50 in test [1] and in test [2] was at most 10 nM throughout.

In the case of `CCc1c(F)ccc2cc(O)cc(-c3c(F)c4nc(OC[C@@]56CCCN5C[C@H](F)C6)nc(N5CCCn6nc(C(=O)N7CCOCC7)cc6C5)c4c4cn(C)nc34)c12` [Example 195, [5-[4-(8-ethyl-7-fluoro-3-hydroxy-1-naphthyl)-5-fluoro-7-[[(2R,8S)-2-fluoro-1,2,3,5,6,7-hexahydropyrrolizin-8-yl]methoxy]-2-methyl-pyrazolo[4,3-f]quinazolin-9-yl]-4,6,7,8-tetrahydropyrazolo[1,5-a][1,4]diazepin-2-yl]-morpholino-methanone], the IC50 in test [1] and in test [2] was at most 10 nM each time.

For the molecule `CCc1c(F)ccc2cc(O)cc(-c3c(F)c4nc(OC[C@@]56CCCN5C[C@H](F)C6)nc(N5CCCOCC5)c4c4cn(C)nc34)c12` [Example 88, 5-ethyl-6-fluoro-4-[5-fluoro-2-methyl-9-(1,4-oxazepan-4-yl)-7-[[(2R,8S)-2-fluoro-1,2,3,5,6,7-hexahydropyrrolizin-8-yl]methoxy]pyrazolo[4,3-f]quinazolin-4-yl]naphthalen-2-ol], the IC50 in test [1] and in test [2] was at most 10 nM in each case.

In the case of `CCc1c(F)ccc2cc(O)cc(-c3c(F)c4nc(OCC5(CN6CC[C@@H](O)C6)CC5)nc(N5CCOCC(C)(O)C5)c4c4cn(C)nc34)c12` (stereo partly drawn) [Example 194, 4-[4-(8-ethyl-7-fluoro-3-hydroxy-1-naphthyl)-5-fluoro-2-methyl-7-[[1-[[(3R)-3-hydroxypyrrolidin-1-yl]methyl]cyclopropyl]methoxy]pyrazolo[4,3-f]quinazolin-9-yl]-6-methyl-1,4-oxazepan-6-ol], the IC50 in test [1] and in test [2] was at most 10 nM in each case.

Turning to `C#Cc1c(F)ccc2cc(O)cc(-c3c(C)c4nc(OC[C@@]56CCCN5C[C@H](F)C6)nc(N5CCOCC(C)(O)C5)c4c4cn(C)nc34)c12` (stereo partly drawn) [Example 185, 4-[4-(8-ethynyl-7-fluoro-3-hydroxy-1-naphthyl)-7-[[(2R,8S)-2-fluoro-1,2,3,5,6,7-hexahydropyrrolizin-8-yl]methoxy]-2,5-dimethyl-pyrazolo[4,3-f]quinazolin-9-yl]-6-methyl-1,4-oxazepan-6-ol], the half-inhibitory concentration (IC50) in test [1] is at most 10 nM; in test [2], 10 to 100 nM.

On to `CCc1c(F)ccc2cc(O)cc(-c3cc4nc(OCC5CCN(C)CC5)nc(N5CCCOCC5)c4c4cn(C)nc34)c12` [Example 31, 5-ethyl-6-fluoro-4-[2-methyl-7-[(1-methyl-4-piperidyl)methoxy]-9-(1,4-oxazepan-4-yl)pyrazolo[4,3-f]quinazolin-4-yl]naphthalen-2-ol], for which the IC50 in test [1] and in test [2] was 100 to 10000 nM in each case.

As for `CCc1c(F)ccc2cc(O)cc(-c3c(F)c4nc(OCC56COC(COC)(C5)C6)nc(N5CC6CCC(C5)N6)c4c4cn(C)nc34)c12` [Example 169, 4-[9-(3,8-diazabicyclo[3.2.1]octan-3-yl)-5-fluoro-7-[[1-(methoxymethyl)-2-oxabicyclo[2.1.1]hexan-4-yl]methoxy]-2-methyl-pyrazolo[4,3-f]quinazolin-4-yl]-5-ethyl-6-fluoro-naphthalen-2-ol], the results for the half-inhibitory concentration (IC50) in test [1] and in test [2] were 100 to 10000 nM and at most 10 nM, respectively.

As to `CCc1c(F)ccc2cc(O)cc(-c3c(F)c4nc(OCC5(CN6C[C@@H]7C[C@H]6CO7)CC5)nc(N5CCOCC(C)(O)C5)c4c4cn(C)nc34)c12` (mixture of isomers) [Example 226, 4-[4-(8-ethyl-7-fluoro-3-hydroxy-1-naphthyl)-5-fluoro-2-methyl-7-[[1-[[rac-(1S,4S)-2-oxa-5-azabicyclo[2.2.1]heptan-5-yl]methyl]cyclopropyl]methoxy]pyrazolo[4,3-f]quinazolin-9-yl]-6-methyl-1,4-oxazepan-6-ol], the IC50 in test [1] and in test [2] was at most 10 nM each time.

Turning to `CCc1c(F)ccc2cc(O)cc(-c3cc4nc(OC[C@@]56CCCN5C[C@H](F)C6)nc(N5CCCn6nc(C(=O)N(C)C)cc6C5)c4c4cn(CC(F)(F)F)nc34)c12` [Example 78, 5-[4-(8-ethyl-7-fluoro-3-hydroxy-1-naphthyl)-7-[[(2R,8S)-2-fluoro-1,2,3,5,6,7-hexahydropyrrolizin-8-yl]methoxy]-2-(2,2,2-trifluoroethyl)pyrazolo[4,3-f]quinazolin-9-yl]-N,N-dimethyl-4,6,7,8-tetrahydropyrazolo[1,5-a][1,4]diazepine-2-carboxamide], the concentration for half-maximal inhibition (IC50) was 100 to 10000 nM in test [1] and at most 10 nM in test [2].

Turning to `CCc1c(F)ccc2cc(O)cc(-c3cc4nc(OC[C@@]56CCCN5C[C@H](F)C6)nc(N5CCOC(CO)C5)c4c4cn(C)nc34)c12` (stereo partly drawn) [Example 115, 5-ethyl-6-fluoro-4-[9-[2-(hydroxymethyl)morpholin-4-yl]-2-methyl-7-[[(2R,8S)-2-fluoro-1,2,3,5,6,7-hexahydropyrrolizin-8-yl]methoxy]pyrazolo[4,3-f]quinazolin-4-yl]naphthalen-2-ol], the IC50 in test [1] and in test [2] was at most 10 nM in each case.

For `CCc1c(F)ccc2cc(O)cc(-c3cc4nc(OC[C@@]56CCCN5C[C@H](F)C6)nc(N5CCCC6(CCC(O)C6)C5)c4c4cn(C)nc34)c12` (stereo partly drawn) [Example 200, 7-[4-(8-ethyl-7-fluoro-3-hydroxy-1-naphthyl)-2-methyl-7-[[(2R,8S)-2-fluoro-1,2,3,5,6,7-hexahydropyrrolizin-8-yl]methoxy]pyrazolo[4,3-f]quinazolin-9-yl]-7-azaspiro[4.5]decan-3-ol], the IC50 in test [1] and in test [2] was 100 to 10000 nM each time.

As for `CCc1c(F)ccc2cc(O)cc(-c3c(C)c4nc(OCC5(CO)CC5)nc(N5CC6CCC(C5)N6)c4c4cn(C)nc34)c12` [Example 242, 4-[9-(3,8-diazabicyclo[3.2.1]octan-3-yl)-7-[[1-(hydroxymethyl)cyclopropyl]methoxy]-2,5-dimethyl-pyrazolo[4,3-f]quinazolin-4-yl]-5-ethyl-6-fluoro-naphthalen-2-ol], the IC50 is 100 to 10000 nM in test [1] and at most 10 nM in test [2].

Consider `CCc1c(F)ccc2cc(O)cc(-c3c(C)c4nc(OCC5(CF)COC5)nc(N5CCCn6nc(C(=O)N(C)C)cc6C5)c4c4cn(C)nc34)c12` [Example 215], for which the IC50 in test [1] is 100 to 10000 nM; in test [2] it was 10 to 100 nM.

On to `CCc1c(F)ccc2cc(O)cc(-c3c(F)c4nc(OCC5(CN6CC7CCC(C6)O7)CC5)nc(N5CCOCC(C)(O)C5)c4c4cn(C)nc34)c12` (stereo not shown) [Example 217, 4-[4-(8-ethyl-7-fluoro-3-hydroxy-1-naphthyl)-5-fluoro-2-methyl-7-[[1-(8-oxa-3-azabicyclo[3.2.1]octan-3-ylmethyl)cyclopropyl]methoxy]pyrazolo[4,3-f]quinazolin-9-yl]-6-methyl-1,4-oxazepan-6-ol], for which the IC50 in test [1] and in test [2] was at most 10 nM throughout.

`CCc1c(F)ccc2cc(O)cc(-c3c(F)c4nc(OC[C@@]56CCCN5C[C@H](F)C6)nc(N5CCOC[C@](C)(O)C5)c4c4cn(C)nc34)c12` [Example 110, (6R)-4-[4-(8-ethyl-7-fluoro-3-hydroxy-1-naphthyl)-5-fluoro-2-methyl-7-[[(2R,8S)-2-fluoro-1,2,3,5,6,7-hexahydropyrrolizin-8-yl]methoxy]pyrazolo[4,3-f]quinazolin-9-yl]-6-methyl-1,4-oxazpan-6-ol]: the half-inhibitory concentration (IC50) in test [1] and in test [2] was at most 10 nM throughout.

Turning to `CCc1c(F)ccc2cc(O)cc(-c3cc4nc(OC[C@@]56CCCN5C[C@H](F)C6)nc(N5CCOCC(C)C5)c4c4cn(C)nc34)c12` (stereo partly drawn) [Example 121, 5-ethyl-6-fluoro-4-[2-methyl-9-(6-methyl-1,4-oxazepan-4-yl)-7-[[(2R,8S)-2-fluoro-1,2,3,5,6,7-hexahydropyrrolizin-8-yl]methoxy]pyrazolo[4,3-f]quinazolin-4-yl]naphthalen-2-ol], the IC50 in test [1] and in test [2] was at most 10 nM in each case.

Regarding `CCc1c(F)ccc2cc(O)cc(-c3cc4nc(OC[C@@]56CCCN5C[C@H](F)C6)nc(N5CCCC(C)(OC)C5)c4c4cn(C)nc34)c12` (stereo partly drawn) [Example 131, 5-ethyl-6-fluoro-4-[9-(3-methoxy-3-methyl-1-piperidyl)-2-methyl-7-[[(2R,8S)-2-fluoro-1,2,3,5,6,7-hexahydropyrrolizin-8-yl]methoxy]pyrazolo[4,3-f]quinazolin-4-yl]naphthalen-2-ol], the IC50 is 100 to 10000 nM in test [1] and 10 to 100 nM in test [2].
